This is an account of results in patent US7427416B2, “Methods of treating conditions using metal-containing materials” (Nucryst Pharmaceuticals Corp., priority 2000, dated 2008).

The subject of assay [1] is Pseudomonas aeruginosa strain 5588 infected lungs. Description: nebulized forms of silver in rats, gross lung score. Type of assay: in vivo, rat. The settings on record: after 24 h, nebulized solutions (400 ppm; colloidal silver 20 ppm).
Protocol: A solution was prepared by sparging CO2 through 1000 ml of reverse osmosis water using commercial CO2 Soda Syphon Charger. This process results in the pH of the water dropping to about 4. At this point, approximately 333 ml of the carbonated water was decanted into a plastic bottle and 333 square inches of nanocrystalline silver-coated net was added to the water. The nanocrystalline silver-coated net and water were placed in 37° C. shaker incubator and shaken at 180 RPM for 30 minutes to elevate the pH to approximately 5.8. The solution was then transferred to a beaker and stirred vigorously for 2 minutes to raise the pH to approximately at 7.3.
A colloidal silver solution (20 ppm) in was obtained from a commercial source.
The dissolution solutions were transferred to commercial nebulizers which were connected to a Medical air cylinder with a flow rate of approx. 20 L/min. The outflows of the nebulizers were connected to an animal chamber housing the rats to be dosed. All rats (40 randomly assigned animals) received the dosing. The rats received two —½ hour aerosol administrations of the test solutions on the day of infection. […]
All rats of each group of animals were sacrificed after 24 h. […] Lungs were grossly scored (absent=0, mild=1, moderate=2, and severe=3) based on the degree of involvement of consolidation, hemorrhage, edema and necrosis based upon gross observation.
The next assay has as its system Staphylococcus aureus. Description: aerosol of silver solutions on streaked agar plates. Type of assay: cell-based. The arrangement: key to Growth at 16 h (0−++++) / Growth at 48 h (0−++++): (0−++++); (0−++++); (0−++++); (0−++++). The settings on record: for Growth at 16 h (0−++++) / Growth at 48 h (0−++++): aerosol 53 minutes. The protocol: (§1) The solutions were in turn placed in an ultrasonic nebulizer that created small droplets containing dissolved and suspended parts of the silver solution. The output from the nebulizer was directed into a chamber made from a stainless steel frame and base. Petri dishes containing Mueller Hinton agar streaked with 4 h old cultures of Pseudomonas aeruginosa and Staphylococcus aureus, were exposed to the silver solution aerosols and the silver nitrate aerosols.
(§2) The method used for the current tests was the mechanical method in the form of an ultrasonic nebulizer. For convenience an ultrasonic humidifier was used. The liquid containing the dissolved and suspended silver from the dressing of Example 1 was placed in the water reservoir of the humidifier. When power was applied to the humidifier aerosol droplets of dissolved and suspended silver were generated and flowed from the output nozzle.
(§3) A test chamber was constructed using a stainless steel frame with a transparent plastic covering. The frame was placed on a stainless steel base plate. The output nozzle from the humidifier was modified so that the aerosol could be directed into the chamber at a height of approximately 30 cm from the base. The plates and other test samples were placed on the stainless steel plate and exposed to the aerosol for a prescribed length of time.
(§4) Petri dishes, containing Mueller Hinton agar, were streaked with 4 h old cultures of Pseudomonas aeruginosa or Staphylococcus aureus. The plates were then weighed and their exposed outer surfaces were coated with Parafilm to prevent condensation from occurring on these surfaces. These plates were placed in the aerosol chamber uncovered. The ultrasonic nebulizer was then started and run for 53 minutes. The plates were then removed from the chamber, the plastic was removed and the dishes re-weighed so that the amount of moisture loss/gain could be determined.
(§5) The plates were then placed in a 35° C. incubator for 16 h. After incubation the pattern and amount of growth was assessed on the plates for both organisms.
(§6) Three of the six plates made for each organism were tested to determine if the antimicrobial effect was cidal or static in nature. This was accomplished by rinsing or placing a piece of the clear section of agar in the Petri dish plates into Tryptic soy broth in a test tube and incubating for 4 h or 16 h. If the medium turned turbid in 4 h it would indicate that the antimicrobial affect was bacteriostatic in nature. If the organisms took more than 16 h to grow, as indicated by turbidity, it was considered an indication that both static and cidal effects occurred. If no growth occurred the effect was bactericidal.
(§7) The solutions were in turn placed in an ultrasonic nebulizer that created small droplets containing dissolved and suspended parts of the solution of nanocrystalline noble metal-containing material. The output from the nebulizer was directed into a chamber made from a stainless steel frame and base. Petri dishes containing Mueller Hinton agar streaked with 4 h old cultures of Pseudomonas aerugiona and Staphylococcus aureus were exposed to nanocrystalline noble metal aerosols and the silver nitrate aerosols.
(§8) The method used to create an aerosol for these tests was the mechanical method in the form of an ultrasonic nebulizer. For convenience, an ultrasonic humidifier was used. The liquid containing the dissolved and suspended antimicrobial metal-containing material with atomic disorder was placed in the water reservoir of the humidifier. When power was applied to the humidifier, aerosol droplets of dissolved and suspended antimicrobial metal-containing material with atomic disorder were generated and flowed from the output nozzle.
(§9) A test chamber was constructed using a stainless steel frame with a transparent plastic covering. The frame was placed on a stainless steel plate.

A further assay deals with Pseudomonas aeruginosa. The assay is described as above. The class given is cell-based. Further details: key to Growth at 16 h (0−++++) / Growth at 48 h (0−++++): (0−++++); (0−++++); (0−++++); (0−++++). The settings on record: for Growth at 16 h (0−++++) / Growth at 48 h (0−++++): aerosol 53 minutes; for Viable 4 h / Viable 16 h: regrowth in Tryptic soy broth. As to the method:
as §1, §2, §3, §4, §5, §6, §7, §8, §9

Assay [2] concerns Pseudomonas infected lungs. Description: rat lung infection, gross lung score. The class given is in vivo. The settings on record: individual animals, absent=0, mild=1, moderate=2, severe=3. The protocol: A solution form nanocrystalline silver coated dressings (AgHDPE) from Example 1 was prepared by sparging CO2 through 1000 ml of reverse osmosis water using commercial CO2 Soda Syphon Charger. […] At this point, approximately 333 ml of the carbonated water was decanted into a plastic bottle and 333 square inches of nanocrystalline silver-coated net was added to the water. The nanocrystalline silver-coated net and water were placed in 37° C. shaker incubator and shaken at 180 RPM for 30 minutes to elevate the pH to approximately 5.8. The solution was then transferred to a beaker and stirred vigorously for 2 minutes to raise the pH to approximately at 7.3. The dissolution solution was transferred to a commercial nebulizer which was connected to a medical air cylinder with a flow rate of approx. 20 L/min. The outflow of the nebulizer was connected to a animal chamber housing the rats to be dosed. Only the “test” rats (12 randomly assigned animals) received the dosing. The rats received two —½ hour aerosol administrations of the test solution on the day of infection. […]
On each day, six rats of each group of animals were sacrificed. […] Lungs were grossly scored (absent=0, mild=1, moderate=2, and severe=3) based on the degree and involvement of consolidation, hemorrhage, edema and necrosis based upon gross observation.

The subject of assay [3] is Pseudomonas infected lungs. Description: rat lung infection, histopathology of lung samples. Type of assay: in vivo. Conditions: for Consol Score / Inflam Score: 0=normal to 4 very severe. The protocol: A solution form nanocrystalline silver coated dressings (AgHDPE) from Example 1 was prepared by sparging CO2 through 1000 ml of reverse osmosis water using commercial CO2 Soda Syphon Charger. […] At this point, approximately 333 ml of the carbonated water was decanted into a plastic bottle and 333 square inches of nanocrystalline silver-coated net was added to the water. The nanocrystalline silver-coated net and water were placed in 37° C. shaker incubator and shaken at 180 RPM for 30 minutes to elevate the pH to approximately 5.8. The solution was then transferred to a beaker and stirred vigorously for 2 minutes to raise the pH to approximately at 7.3. The dissolution solution was transferred to a commercial nebulizer which was connected to a medical air cylinder with a flow rate of approx. 20 L/min. The outflow of the nebulizer was connected to a animal chamber housing the rats to be dosed. Only the “test” rats (12 randomly assigned animals) received the dosing. The rats received two —½ hour aerosol administrations of the test solution on the day of infection. Thereafter, the test rats were dosed 3 times per day for an additional one and a half days.
The bacteria used for infection of these animals were Pseudomonas aeruginosa strain 5588. The dose was previously titrated to ascertain that a dose of up to 10^9 CFU was not lethal for the animals. The bacteria were grown overnight in Tryptic soy broth, washed once in sterile PBS and resuspend in sterile PBS. The final concentration of the inoculum was 4×10^9 CFU/ml.
The rats were anesthetized by inhalation of 2% halothane. A 400 microliter volume of bacterial suspension was intratracheally administered in the bronchi of each rat. This was performed non-surgically on intubated animals.
Histopathology was scored (0-4) based upon the degree of consolidation and inflammation (neutrophil infiltration). The entire right middle lobes of all rats were collected for histopathology. As whole lobes were selected there was no bias toward any sample. All samples were fixed in neutral buffered formalin at the time the lung was removed from the thorax. It was fixed overnight, dehydrated and embedded in was. Sections were obtained which were hydrated and stained with haematoxylin and eosin.
All sections were examined by a veterinary pathologist who was blinded to the treatment groups, until after the samples were scored and comments were provided. (0=normal, 1=slight, 2 moderate, 3 severe, 4 very severe).

Where [4] appears, read: Solutions 1 and 3: Ag 85 (dressing) / 99 (AgNO3) μg/ml.
The mark [5] stands for this setting: Solutions 1 and 3: Ag 85 / 99 μg/ml.
The mark [6] stands for this setting: Solutions 1 and 3: Ag 85 / 99 μg/ml, regrowth in Tryptic soy broth.
[7] abbreviates: Solutions 2 and 4: Ag 370 (dressing) / 300 (AgNO3) μg/ml.
The mark [8] stands for this setting: Solutions 2 and 4: Ag 370 / 300 μg/ml.

Several values for one entry are separate records, joined by “and”; a condition that tells them apart may be missing. Identical values can stand only once.

Consider `O=[N+]([O-])[O-].[Ag+]` [AgNO3, silver nitrate], for which the “gross score of lungs” value in assay [1] is listed as “moderately to severely inflamed”. For the same compound, the “Growth at 16 h (0−++++)” value in the assay with Staphylococcus aureus (setting [4]) was 0; in the assay with Staphylococcus aureus (Solutions 1 and 3: Ag 85 (dressing) / 99 (AgNO3) μg/ml, listed as AgNo3), “++++”; in the assay with Staphylococcus aureus (setting [7]), 0; in the assay with Pseudomonas aeruginosa (setting [4]) it was 0; in the assay with Pseudomonas aeruginosa (setting [7]) it was 0. The “Growth at 48 h (0−++++)” value is on record as “++++” with Staphylococcus aureus (setting [5]), “+++” in the assay with Staphylococcus aureus (setting [8]), 0 with Pseudomonas aeruginosa (setting [5]) and 0 with Pseudomonas aeruginosa (setting [8]). For the same compound, the “Viable 4 h” value with Staphylococcus aureus (setting [6]) is “No”; with Staphylococcus aureus (Solutions 1 and 3: Ag 85 / 99 μg/ml, regrowth in Tryptic soy broth, listed as AgNo3), “Yes”; in the assay on Staphylococcus aureus (Solutions 2 and 4: Ag 370 / 300 μg/ml, regrowth in Tryptic soy broth) it was “No”; in the assay with Pseudomonas aeruginosa (setting [5]), “No”; with Pseudomonas aeruginosa (setting [8]), “No”. In addition, the “Viable 16 h” value in the assay with Staphylococcus aureus (setting [6]) is “Yes”; with Pseudomonas aeruginosa (setting [5]), “No”; in the assay with Pseudomonas aeruginosa (Solutions 1 and 3: Ag 85 / 99 μg/ml, listed as AgNo3), “Yes”; in the assay with Pseudomonas aeruginosa (setting [8]) it was “No”.

For `NC[C@H]1O[C@H](O[C@H]2[C@H](O)[C@@H](O[C@H]3O[C@H](CO)[C@@H](O)[C@H](N)[C@H]3O)[C@H](N)C[C@@H]2N)[C@H](N)C[C@@H]1O` [Tobramycin], the gross lung score in assay [2] (24 h) is 2 (3×) and 3 (2×) and 1. In addition, the gross lung score in assay [2] (48 h) was 1 (4×) and 2 and Dead. For the same compound, in assay [3] (Time 24), the “Comments (histopathology)” value is on record as “Severe infiltration of PMNs into interstitial spaces”, the “Consol Score” value is listed as 3 and the “Inflam Score” value amounted to 3. Besides, in assay [3] (Time 48), the “Comments (histopathology)” value is “Severe infiltration of PMNs into interstitial spaces”, the Involvement of sample result is “in affected areas. Involvement of 70% of sample”, the “Consol Score” value is recorded as 3 and the “Inflam Score” value was 3.
